# Measured values: article PMC3701955 (Bioorganic & medicinal chemistry, 2012)
# Columns and labels:
# human OTR = biological target: T1, human OTR (Homo sapiens, UniProt P30559); type: binding; conditions: human receptors
# T1 sequence (P30559 1-389): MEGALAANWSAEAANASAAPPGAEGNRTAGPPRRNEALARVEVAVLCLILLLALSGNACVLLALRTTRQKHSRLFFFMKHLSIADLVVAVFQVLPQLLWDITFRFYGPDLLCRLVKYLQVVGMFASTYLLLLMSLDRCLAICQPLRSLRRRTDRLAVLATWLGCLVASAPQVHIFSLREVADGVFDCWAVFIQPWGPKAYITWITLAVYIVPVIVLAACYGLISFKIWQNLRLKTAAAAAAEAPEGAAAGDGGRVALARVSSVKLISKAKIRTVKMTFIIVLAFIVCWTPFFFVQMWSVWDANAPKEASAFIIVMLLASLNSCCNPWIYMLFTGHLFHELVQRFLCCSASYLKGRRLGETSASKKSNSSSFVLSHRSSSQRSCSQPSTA
# [1] = cited from earlier work
# rodent OTR = conditions: prairie vole brain sections
# [2] = biological target: T2, human vasopressin receptor V1b (Homo sapiens, UniProt P47901); type: binding; conditions: competition with [3H]-AVP, NIMH PDSP
# T2 sequence (P47901 1-424): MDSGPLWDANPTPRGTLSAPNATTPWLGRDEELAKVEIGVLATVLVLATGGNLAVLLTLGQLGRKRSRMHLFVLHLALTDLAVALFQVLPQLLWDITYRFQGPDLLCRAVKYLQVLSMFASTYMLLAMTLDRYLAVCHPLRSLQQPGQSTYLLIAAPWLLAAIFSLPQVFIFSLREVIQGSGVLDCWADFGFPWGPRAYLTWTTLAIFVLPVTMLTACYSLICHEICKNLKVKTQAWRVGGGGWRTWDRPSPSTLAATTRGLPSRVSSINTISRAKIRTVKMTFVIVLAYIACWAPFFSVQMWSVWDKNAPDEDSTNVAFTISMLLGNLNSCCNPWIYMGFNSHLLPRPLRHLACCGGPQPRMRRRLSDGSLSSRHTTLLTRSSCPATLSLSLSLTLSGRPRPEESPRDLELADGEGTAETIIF
# human V1aR = human V1aR (Homo sapiens, UniProt P37288); type: binding; conditions: competition with [3H]-AVP, NIMH PDSP
# Sequence of human V1aR (P37288 whole entry): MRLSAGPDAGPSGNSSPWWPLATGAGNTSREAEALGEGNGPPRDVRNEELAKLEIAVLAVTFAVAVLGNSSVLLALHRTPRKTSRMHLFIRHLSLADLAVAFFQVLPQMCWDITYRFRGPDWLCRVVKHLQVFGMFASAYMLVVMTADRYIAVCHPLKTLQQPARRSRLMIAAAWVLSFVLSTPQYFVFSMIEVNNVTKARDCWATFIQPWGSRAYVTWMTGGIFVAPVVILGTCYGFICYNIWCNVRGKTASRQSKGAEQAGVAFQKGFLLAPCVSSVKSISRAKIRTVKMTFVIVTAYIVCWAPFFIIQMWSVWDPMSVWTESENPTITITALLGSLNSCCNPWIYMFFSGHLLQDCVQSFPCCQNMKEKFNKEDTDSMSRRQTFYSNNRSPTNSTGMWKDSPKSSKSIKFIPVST
# [3] = biological target: human vasopressin receptor V2 (Homo sapiens, UniProt P30518); type: binding; conditions: competition with [3H]-AVP, NIMH PDSP
# Sequence of human vasopressin receptor V2 (P30518 whole entry): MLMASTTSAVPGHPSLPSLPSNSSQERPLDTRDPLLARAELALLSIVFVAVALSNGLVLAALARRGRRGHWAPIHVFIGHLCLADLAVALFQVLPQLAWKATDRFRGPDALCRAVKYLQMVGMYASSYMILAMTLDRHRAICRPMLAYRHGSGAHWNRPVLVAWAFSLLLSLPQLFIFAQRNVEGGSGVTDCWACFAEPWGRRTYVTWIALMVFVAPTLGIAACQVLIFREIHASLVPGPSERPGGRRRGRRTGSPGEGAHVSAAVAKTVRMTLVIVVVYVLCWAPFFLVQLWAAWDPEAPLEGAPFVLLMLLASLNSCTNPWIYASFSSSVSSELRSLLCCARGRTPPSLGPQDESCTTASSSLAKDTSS
smiles,measurement,setting,value
"CS(=O)(=O)N1CCC(Oc2ccc(CC(=O)N3CCC(N4C(=O)CCc5ccccc54)CC3)c(OC/C=C/I)c2)CC1 [Compound 1, (E)-1-(1-(2-(2-(3-Iodoallyloxy)-4-(1-(methylsulfonyl)piperidin-4-yloxy)phenyl)acetyl)piperidin-4-yl)-3,4-dihydroquinolin-2(1H)-one]",potency for the human OTR over V1aR,human OTR,79 fold
COc1cc(OC2CCN(C(C)=O)CC2)ccc1C(=O)N1CCC(N2C(=O)OCc3ccccc32)CC1 [Compound L-371257],brain penetration,[1],very poor brain penetrant
"COc1cc(OC2CCN(S(C)(=O)=O)CC2)ccc1CC(=O)N1CCC(N2C(=O)CCc3ccccc32)CC1 [Compound 4, 1-(1-(2-(2-Methoxy-4-((1-(methylsulfonyl)piperidin-4-yl)oxy)phenyl)acetyl)piperidin-4-yl)-3,4-dihydroquinolin-2(1H)-one]",selectivity for the rodent OTR over V1aR,rodent OTR,four times more selective
"CS(=O)(=O)N1CCC(Oc2ccc(CC(=O)N3CCC(N4C(=O)CCc5ccccc54)CC3)c(O)c2)CC1 [Compound 13, 1-(1-(2-(2-Hydroxy-4-(1-(methylsulfonyl)piperidin-4-yloxy)phenyl)acetyl)piperidin-4-yl)-3,4-dihydroquinolin-2(1H)-one]",Ki Human V1b,[2],no detectable affinity
same,Ki Human V1aR,human V1aR,no detectable affinity
same,Ki Human V2,[3],no detectable affinity
